Biological target: T1, 5-lipoxygenase (Rattus norvegicus, UniProt P12527)
T1 construct: containing the 20,000xg supernatant from 6x10⁴ homogenized RBL-1 cells; endogenous in cells; host or cells: RBL-1 cells (20,000xg supernatant of homogenate)
T1 sequence (P12527 1-673): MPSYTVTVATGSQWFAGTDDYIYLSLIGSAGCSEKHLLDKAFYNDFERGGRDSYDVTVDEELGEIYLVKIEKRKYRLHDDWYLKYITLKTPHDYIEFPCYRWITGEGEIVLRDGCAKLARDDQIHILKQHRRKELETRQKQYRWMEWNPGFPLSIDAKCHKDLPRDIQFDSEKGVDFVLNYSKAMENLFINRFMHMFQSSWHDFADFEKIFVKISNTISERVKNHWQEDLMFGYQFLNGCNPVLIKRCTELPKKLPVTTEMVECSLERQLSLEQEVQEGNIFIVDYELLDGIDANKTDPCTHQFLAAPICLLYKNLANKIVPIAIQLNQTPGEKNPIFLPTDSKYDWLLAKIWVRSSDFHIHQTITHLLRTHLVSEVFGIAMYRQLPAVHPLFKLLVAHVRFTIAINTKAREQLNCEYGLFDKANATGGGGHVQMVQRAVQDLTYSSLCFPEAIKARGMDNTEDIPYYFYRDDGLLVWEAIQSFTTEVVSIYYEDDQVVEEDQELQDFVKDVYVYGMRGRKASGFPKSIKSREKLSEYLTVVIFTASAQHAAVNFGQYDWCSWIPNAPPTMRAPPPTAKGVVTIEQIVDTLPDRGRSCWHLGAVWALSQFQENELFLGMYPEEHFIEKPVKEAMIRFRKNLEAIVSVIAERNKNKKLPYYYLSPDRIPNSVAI
Assay: Lipoxygenase IC50 determination (20,000xg supernatant from homogenized RBL-1 cells, radiolabelled arachidonic acid)
Assay type: biochemical
Conditions: 20,000xg supernatant from 6x10⁴ homogenized RBL-1 cells, 2% DMSO vehicle, triplicate incubations; read-out: IC₅₀
Protocol: Lipoxygenase IC₅₀ Determination
Reactions were initiated by addition of radiolabelled arachidonic acid and terminated by acidification and ether extraction. Reaction products were separated from nonconverted substrate by thin layer chromatography and measured by liquid scintillation spectroscopy. All treatments were evaluated in triplicate incubations. […] ICso values and 95% confidence limits were computed by linear regression analysis of percentage inhibition versus log inhibitor concentration plots.

| SMILES | IC50 [nM] |
| --- | --- |
| CC(c1cc2ccccc2s1)N(OC(=O)CCC(=O)O)C(N)=O (stereo not shown) [Example 9, N-succinyloxy-N-[1-(benzo[b]thien-2-yl)ethyl]urea] | 600 |
| COC(=O)ON(C(N)=O)C(C)c1cc2ccccc2s1 (stereo not shown) [Example 5, N-methoxycarbonyloxy-N-[1-(benzol[b]thien-2-yl)ethyl]urea] | 1200 |
| CC(=O)N(O)C(C)c1cc2ccccc2s1 (stereo not shown) [Example 1, N-hydroxy-N-(1-benzol[b]thien-2-ylethyl)acetamide] | 1100 |
| CC(=O)ON(C(N)=O)C(C)c1cc2ccccc2s1 (stereo not shown) [Example 3, N-acetoxy-N-[1-(benzol[b]thien-2-yl)ethyl]urea] | 2100 |
| CC(c1cc2ccccc2s1)N(O)C(=O)NC(N)=O (stereo not shown) [Example 11] | 1000 |
| CC(=O)NC(=O)N(O)C(C)c1cc2ccccc2s1 (stereo not shown) [Example 10, N′-acetyl-N-hydroxy-N-[1-(benzo[b]thien-2-yl)ethyl]urea;] | 1500 |
| CCOC(=O)ON(C(N)=O)C(C)c1cc2ccccc2s1 (stereo not shown) [Example 4, N-ethoxycarbonyloxvyN-[1-(benzo[b]thien-2-yl)ethyl]urea] | 1500 |
